Data from ChEMBL document CHEMBL1201862, “PubChem BioAssay data set” (2004).
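These data come from cells grown in 96-well plates and exposed to compound for 48 hours at five concentrations. Here, GI50 denotes the concentration required for 50% inhibition of growth.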 Calls of active or inactive are those of the source. No stated cut-off is given here; in the data, active = GI50 up to about 1.1 µM and inactive = higher.

Columns and labels:
Assay in all cases: inhibition of tumour cell growth, NCI panel, 48 h
[1] = test system: HT-29
[2] = test system: SF-295
[3] = test system: TK-10
[4] = test system: MOLT-4
[5] = test system: HOP-62
[6] = test system: RXF 393
[7] = test system: T47D
[8] = test system: HCT-15
[9] = test system: BT-549
[10] = test system: Malme-3M
[11] = test system: RPMI-8226
[12] = test system: SR
[13] = test system: U-251
[14] = test system: SF-268
[15] = test system: OVCAR-8
[16] = test system: DU-145
[17] = test system: SK-MEL-2
[18] = test system: CAKI-1
[19] = test system: SK-OV-3
[20] = test system: M14

SMILES | GI50 [1] | GI50 [2] | GI50 [3] | GI50 [4] | GI50 [5] | GI50 [6] | GI50 [7] | GI50 [8] | GI50 [9] | GI50 [10] | GI50 [11] | GI50 [12] | GI50 [13] | GI50 [14] | GI50 [15] | GI50 [16] | GI50 [17] | GI50 [18] | GI50 [19] | GI50 [20]
CCOC(=O)Cc1nn2c(=O)cc(C)nc2s1 | > 100 µM (inactive) | > 100 µM (inactive) | > 100 µM (inactive) | > 100 µM (inactive) | > 100 µM (inactive) | > 100 µM (inactive) | > 100 µM (inactive) | > 100 µM | > 100 µM (inactive) | > 100 µM (inactive) | > 100 µM (inactive) | > 100 µM (inactive) | > 100 µM (inactive) | > 100 µM (inactive) | > 100 µM (inactive) | > 100 µM (inactive) | > 100 µM (inactive) | > 100 µM (inactive) | > 100 µM (inactive) | > 100 µM (inactive)
COC(=O)C(=O)C(C(=O)C(=O)Nc1cc(C)ccc1C)c1nc2ccccc2nc1O (stereo not given) | > 100 µM (inactive) | > 100 µM (inactive) | > 100 µM (inactive) | 71.3 µM (inactive) | > 100 µM (inactive) | 77.3 µM (inactive) | > 100 µM (inactive) | > 100 µM | > 100 µM (inactive) | > 100 µM (inactive) | 19.6 µM (inactive) | 30.3 µM (inactive) | > 100 µM (inactive) | > 100 µM (inactive) | > 100 µM (inactive) | > 100 µM (inactive) | > 100 µM (inactive) | > 100 µM (inactive) | > 100 µM (inactive) | > 100 µM (inactive)
N#CC1(O)CCCCCCCCCCC1 | > 100 µM (inactive) | > 100 µM (inactive) | > 100 µM (inactive) | > 100 µM (inactive) | > 100 µM (inactive) | > 100 µM (inactive) | > 100 µM (inactive) | > 100 µM | > 100 µM (inactive) | > 100 µM (inactive) | > 100 µM (inactive) | > 100 µM (inactive) | > 100 µM (inactive) | > 100 µM (inactive) | > 100 µM (inactive) | > 100 µM (inactive) | > 100 µM (inactive) | > 100 µM (inactive) | > 100 µM (inactive) | > 100 µM (inactive)
[N-]=[N+]=Nc1ccc2c(c1)Sc1ccccc1N2CCCCN1CCN(Cc2ccc(C(=O)c3ccccc3)cc2)CC1 | 1.46 µM (inactive) | 23.4 µM (inactive) | > 39.6 µM (inactive) | 3.6 µM (inactive) | > 38.9 µM (inactive) | 1.72 µM (inactive) | 3.39 µM (inactive) | 3.47 µM | > 20.7 µM (inactive) | 1.95 µM (inactive) | 3.86 µM (inactive) | 3 µM (inactive) | 5.74 µM (inactive) | 5.6 µM (inactive) | 3.4 µM (inactive) | > 100 µM (inactive) | 2.65 µM (inactive) | 7.13 µM (inactive) | > 100 µM (inactive) | 2 µM (inactive)
CCn1c(SCc2nnc(Nc3ccccc3)s2)nc2ccccc2c1=O | 2.95 µM (inactive) | 2.52 µM (inactive) | 3.45 µM (inactive) | 42.6 µM (inactive) | 2.17 µM (inactive) | 4.04 µM (inactive) | 5.57 µM (inactive) | 20.7 µM | 5.24 µM (inactive) | 1.46 µM (inactive) | 5.5 µM (inactive) | 23.7 µM (inactive) | 2.24 µM (inactive) | 3.98 µM (inactive) | 2.02 µM (inactive) | 9.1 µM (inactive) | 5.14 µM (inactive) | 3.04 µM (inactive) | 2.62 µM (inactive) | 10.4 µM (inactive)
COc1ccc2nc3ccc(OC)cc3c(SCc3ccccc3)c2c1 | > 100 µM (inactive) | > 91 µM (inactive) | > 80.7 µM (inactive) | > 41.6 µM (inactive) | > 100 µM (inactive) | > 100 µM (inactive) | > 100 µM (inactive) | > 95.5 µM | > 100 µM (inactive) | > 100 µM (inactive) | 48.8 µM (inactive) | > 32.9 µM (inactive) | > 88.3 µM (inactive) | > 100 µM (inactive) | > 84.1 µM (inactive) | > 100 µM (inactive) | > 100 µM (inactive) | > 100 µM (inactive) | > 100 µM (inactive) | > 33.1 µM (inactive)
CC1(c2nc3ccccc3[nH]2)CCC(C(=O)O)C(C)(C)O1 (stereo not given) | > 100 µM (inactive) | > 100 µM (inactive) | > 100 µM (inactive) | > 100 µM (inactive) | > 100 µM (inactive) | > 100 µM (inactive) | > 100 µM (inactive) | > 100 µM | > 100 µM (inactive) | > 100 µM (inactive) | > 100 µM (inactive) | > 100 µM (inactive) | > 100 µM (inactive) | > 100 µM (inactive) | > 100 µM (inactive) | > 100 µM (inactive) | > 100 µM (inactive) | > 100 µM (inactive) | > 100 µM (inactive) | > 100 µM (inactive)
N=C(N)NCCN1CCCCCc2ccccc21 | > 10 µM (inactive) | > 10 µM (inactive) | > 10 µM (inactive) | > 10 µM (inactive) | > 10 µM (inactive) | > 10 µM (inactive) | > 10 µM (inactive) | > 10 µM | 7.08 µM (inactive) | > 10 µM (inactive) | > 10 µM (inactive) | > 10 µM (inactive) | > 10 µM (inactive) | 3.27 µM (inactive) | > 10 µM (inactive) | > 10 µM (inactive) | > 10 µM (inactive) | > 10 µM (inactive) | > 10 µM (inactive) | > 10 µM (inactive)
O=C(C(=O)n1ccc2ccccc21)c1c[nH]c2ccccc12 | > 10 µM (inactive) | > 10 µM (inactive) | > 10 µM (inactive) | > 10 µM (inactive) | > 10 µM (inactive) | > 10 µM (inactive) | > 10 µM (inactive) | > 10 µM | > 10 µM (inactive) | > 10 µM (inactive) | > 10 µM (inactive) | > 10 µM (inactive) | > 10 µM (inactive) | > 10 µM (inactive) | > 10 µM (inactive) | > 10 µM (inactive) | > 10 µM (inactive) | > 10 µM (inactive) | > 10 µM (inactive) | > 10 µM (inactive)
Cc1ccc(N2C(N)=C(C#N)C(C#N)(C#N)C2c2ccccc2)cc1 (stereo not given) | 3.97 µM (inactive) | 18.9 µM (inactive) | 14.4 µM (inactive) | 2.31 µM (inactive) | 19.5 µM (inactive) | 6.64 µM (inactive) | 5.74 µM (inactive) | 6.71 µM | 10.2 µM (inactive) | 11.5 µM (inactive) | 11.4 µM (inactive) | 8.65 µM (inactive) | 17.3 µM (inactive) | 24.9 µM (inactive) | 20 µM (inactive) | 14.9 µM (inactive) | 13.6 µM (inactive) | 8.97 µM (inactive) | 16.7 µM (inactive) | 12.3 µM (inactive)
